Patent US7951560B2, “Delta 4,5 glycuronidase compositions and methods related thereto” (Massachusetts Institute of Technology, priority 2002, dated 2011)

Columns and labels:
[1] = system: Δ4, 5 glycuronidase; experiment: Extended timecourse hydrolysis of non-heparin disaccharides; format: biochemical, F. heparinum; details: after approximately 18 hours, considerably higher enzyme concentrations
Experimental: None of the non-heparin disaccharides were hydrolyzed under the conditions for measuring substrate kinetics. […] At the same time, these disaccharides were slowly hydrolyzed to varying degrees when the enzyme reactions were conducted over a much longer timecourse (>12 hours) and at considerably higher enzyme concentrations. After approximately 18 hours, greater than 80% of monosulfated chondroitin disaccharide (ΔUGalNac6S) was hydrolyzed, whereas the non-sulfated chondroitin (ΔUGalNAc) and the hyaluronan disaccharide (ΔUH) were still present at approximately 40% and 65%, respectively. The importance of the linkage position is, therefore, not absolute. The apparently positive effect of chondroitin 6-O-sulfation within the galactosamine is consistent with our results for the heparin substrates and provides further evidence for the influence of this position in dictating substrate specificity.

[2] = target: T1, recombinant Δ4, 5 glycuronidase (Δ4,5^Δ20) (Pedobacter heparinus, UniProt C6Y1N7); experiment: Kinetic parameters of Δ4, 5 glycuronidase for disaccharide substrates (loss of absorbance at 232 nm, Michaelis-Menten fit); format: biochemical, F. heparinum; details: conditions for measuring substrate kinetics
T1 sequence (C6Y1N7 21-402): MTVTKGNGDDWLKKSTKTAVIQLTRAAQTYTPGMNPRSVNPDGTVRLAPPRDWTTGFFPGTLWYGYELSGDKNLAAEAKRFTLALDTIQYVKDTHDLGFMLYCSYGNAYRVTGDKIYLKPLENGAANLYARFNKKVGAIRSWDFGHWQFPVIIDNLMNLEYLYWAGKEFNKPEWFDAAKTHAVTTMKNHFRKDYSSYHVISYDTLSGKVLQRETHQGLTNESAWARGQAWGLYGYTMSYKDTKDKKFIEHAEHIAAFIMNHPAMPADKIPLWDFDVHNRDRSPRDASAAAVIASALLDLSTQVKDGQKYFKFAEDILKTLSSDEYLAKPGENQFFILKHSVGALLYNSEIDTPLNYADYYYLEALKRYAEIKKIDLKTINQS
Experimental: Assay for enzyme activity and determination of kinetic parameters. Standard reactions were carried out at 30° C. and included 100 mM sodium phosphate buffer, pH 6.4, 50 mM NaCl, 500 μM disaccharide substrate and 200 nM enzyme in a 100 μl reaction volume. Hydrolysis of heparin disaccharides was determined spectrophotometrically by measuring the loss of the Δ4, 5 chromophore measured at 232 nm Substrate hydrolysis was calculated using the following molar extinction coefficients empirically determined for each disaccharide substrate: ΔUHNAc, ε232=4,524; ΔUHNAc6S, ε232=4,300; ΔUHNS, ε232=6,600; ΔUHNS,6S, ε232=6,075; ΔUHNH26S, ε232=4,826; ΔU2SHNS, ε232=4,433. Initial rates (Vo) were extrapolated from linear activities representing <10% substrate turnover and fit to pseudo first-order kinetics. For kinetic experiments, disaccharide concentration for each respective substrate was varied from 48 to 400 μM concentrations. Km and kcat values were extrapolated from Vo vs. [S] curves fit to the Michaelis Menten equation by a non-linear, least squares regression.
The specificity of the Δ4, 5 glycuronidase acting on various glycosaminoglycan disaccharide substrates was investigated. The various substrates examined included both heparin and chondroitin disaccharides as well as an hyaluronadate. In particular, we considered the possibility of any structural discriminations pertaining to glycosidic linkage position (1→4 vs. 1→3) and relative sulfation state within the disaccharide. For each substrate, kinetic parameters were determined based on substrate saturation profiles that fit Michaelis-Menten assumptions (FIG. 8).

[3] = system: Δ4, 5 glycuronidase; experiment: Detection of Δ4, 5 glycuronidase activity by capillary electrophoresis on heparinase-digested heparin; format: biochemical, F. heparinum
Experimental: Detection of Δ4, 5 glycuronidase activity by capillary electrophoresis. 200 μg of heparin (Celsus Laboratories) was subject to exhaustive heparinase digestion as described [Venkataraman, G., Shriver, Z., Raman, R., and Sasisekharan, R., 1999, Science 286, 537-42] with certain modifications that included a 50 mM PIPES buffer, pH 6.5 with 100 mM NaCl in a 100 μl reaction volume. Following heparinase treatment, 25 picomoles of Δ4, 5 glycuronidase was added to one-half of the original reaction (pre-equilibrated at 30° C.). 20 μl aliquots were removed at 1 minute and 30 minutes and activity quenched by heating at 95° C. for 10 minutes. 20 μl of the minus Δ4, 5 control (also heated for 10 minutes) was used as the 0 time point. Disaccharide products were resolved by capillary electrophoresis run for 25 minutes under positive polarity mode as previously described [Rhomberg, A. J., Ernst, S., Sasisekharan, R., and Biemann, K., 1998, Proc Natl Acad Sci USA 95, 4176-81].
In this manner, the Δ4, 5 should be very useful in assessing the composition of disaccharides resulting from prior heparinase treatment of heparin/heparan sulfate. For this particular experiment, we pre-treated 200 μg of heparin with a heparinase cocktail. This exhaustive digestion was then directly followed by a relatively short (1 minute) or long (30 minute) Δ4, 5 glycuronidase treatment carried out under optimal reaction conditions. The disaccharide products were then resolved by capillary electrophoresis. The electrophoretic mobility profile for the Δ4, 5 treated saccharides were then directly compared to the untreated control (i.e., heparinase treatment only) run under identical conditions (FIG. 9). 7 disaccharide peaks were present in the capillary electrophoretogram corresponding to the heparinase only control (A.). A structural assignment for each one of these peaks was made based on previously established compositional analyses. […] Predictably, the relative amplitude and area of these peaks remained the same, over the entire timecourse of the Δ4, 5 preincubation. This unchanging result extended to 18 hours. On the other hand, peaks corresponding to disaccharides lacking the 2-O sulfate were eliminated.

[4] = Pilot expression of the full-length enzyme in E. coli: solubility and activity
Source text: Using PCR, we cloned from the F. heparinum genome both the full-length enzyme and the “mature” enzyme lacking the N-terminal 20 amino acid signal sequence (Δ4,5^Δ20) into a T7-based expression plasmid. Cloning into pET28a permitted the expression of the glycuronidase as an N-terminal 6× His-tag fusion protein. Pilot expression studies focused on the full-length enzyme. In these initial experiments, we examined several different induction conditions such as temperature, time and length of induction, and even IPTG concentrations.

## CC(=O)NC1C(O)OC(CO)C(O)C1OC1OC(C(=O)O)=CC(O)C1O (stereo not shown) [ΔUGalNAc]
[1]
  disaccharide still present: approximately 40%

## O=C(O)C1=C[C@H](O)[C@@H](OS(=O)(=O)O)[C@H](O[C@H]2[C@H](O)[C@@H](NS(=O)(=O)O)[C@@H](O)O[C@@H]2CO)O1 [ΔU2SHNS]
[2]
  substrate status / substrate preference: not a substrate

## CC(=O)N[C@H]1C(O)O[C@H](COS(=O)(=O)O)[C@@H](O[C@@H]2OC(C(=O)O)=C[C@H](O)[C@H]2O)[C@@H]1O (stereo partly shown) [ΔUHNAc, 6S]
[2]
  substrate status / substrate preference: best substrates
[3]
  hydrolysis after one minute Δ4, 5 treatment (in words): essentially hydrolyzed

## CC(=O)N[C@H]1C(O)O[C@H](COS(=O)(=O)[O-])[C@H](O)[C@@H]1OC1OC(C(=O)[O-])=C[C@H](O)[C@H]1O.[Na+].[Na+] (stereo partly shown) [ΔUGalNac6S]
[1]
  disaccharide hydrolyzed: greater than 80%

## N[C@H]1C(O)O[C@H](COS(=O)(=O)O)[C@@H](O[C@@H]2OC(C(=O)O)=C[C@H](O)[C@H]2O)[C@@H]1O (stereo partly shown) [ΔUHNH2, 6S]
[2]
  substrate status / substrate preference: less good as substrates

## CC(=O)NC1C(O)OC(CO)C(O)C1OC1OC(C(=O)O)=CC(O)C1O (stereo not shown) [ΔUH]
[1]
  disaccharide still present: ~65%

## O=C(O)C1=C[C@H](O)[C@@H](O)[C@H](O[C@H]2[C@H](O)[C@@H](NS(=O)(=O)O)C(O)O[C@@H]2CO)O1 (stereo partly shown) [ΔUHNS]
[2]
  substrate status / substrate preference: less good as substrates
[3]
  hydrolysis by 30 minutes Δ4, 5 treatment: completely depleted
  hydrolyzed after 1 minute Δ4, 5 treatment: ~50%

## O=C(O)C1=C[C@H](O)[C@@H](O)[C@H](O[C@H]2[C@H](O)[C@@H](NS(=O)(=O)O)C(O)O[C@@H]2COS(=O)(=O)O)O1 (stereo partly shown) [ΔUHNS, 6S]
[2]
  substrate status / substrate preference: roughly in the middle
[3]
  hydrolysis by 30 minutes Δ4, 5 treatment: completely depleted
  hydrolyzed after 1 minute Δ4, 5 treatment: approximately 75%

## CC(=O)N[C@H]1C(O)O[C@H](CO)[C@@H](O[C@@H]2OC(C(=O)O)=C[C@H](O)[C@H]2O)[C@@H]1O (stereo partly shown) [ΔUHNac]
[2]
  substrate status / substrate preference: best substrates

B1: full-length enzyme: full-length 402 amino acid Δ4, 5 glycuronidase, SEQ ID NO:3, expressed as N-terminal 6× His-tag fusion (protein, listed as Flavobacterium heparinum)
chain: MKSLLSAFVATIALIGSANGMTVTKGNGDDWLKKSTKTAVIQLTRAAQTYTPGMNPRSVNPDGTVRLAPPRDWTTGFFPGTLWYGYELSGDKNLAAEAKRFTLALDTIQYVKDTHDLGFMLYCSYGNAYRVTGDKIYLKPLENGAANLYARFNKKVGAIRSWDFGHWQFPVIIDNLMNLEYLYWAGKEFNKPEWFDAAKTHAVTTMKNHFRKDYSSYHVISYDTLSGKVLQRETHQGLTNESAWARGQAWGLYGYTMSYKDTKDKKFIEHAEHIAAFIMNHPAMPADKIPLWDFDVHNRDRSPRDASAAAVIASALLDLSTQVKDGQKYFKFAEDILKTLSSDEYLAKPGENQFFILKHSVGALLYNSEIDTPLNYADYYYLEALKRYAEIKKIDLKTINQS
modifications: N-terminal 6xHis tag
[4]; N-terminal 6× His-tag fusion, all induction conditions examined
  solubility on recombinant expression: nearly exclusively as an insoluble fraction
[4]; solubilised with detergents (e.g., CHAPS), salt, glycerol
  activity of partially purified, solubilised enzyme: largely inactive
